Measured values taken from ChEMBL document CHEMBL1201862, “PubChem BioAssay data set” (2004).
Values joined by “and” are separate entries in the source; they are usually repeats but may differ in a detail not shown here. Equal entries are not always repeated.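 How tested: cells in 96-well plates exposed to compound for 48 hours at five concentrations. Abbreviation: GI50, concentration required for 50% inhibition of growth.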 Active and inactive are the calls of the source. Rule as the data show it: active = GI50 up to about 1.1 µM and inactive = higher.

Experiments:
Assay in all cases: DTP human tumour cell line panel, 48 h
[1] = tested on: M14
[2] = tested on: DU-145
[3] = tested on: ACHN
[4] = tested on: RXF 393
[5] = tested on: SK-MEL-2
[6] = tested on: HCC 2998
[7] = tested on: Malme-3M
[8] = tested on: COLO 205
[9] = tested on: TK-10
[10] = tested on: CAKI-1
[11] = tested on: OVCAR-4
[12] = tested on: OVCAR-5
[13] = tested on: IGROV-1
[14] = tested on: SF-268
[15] = tested on: HCT-116
[16] = tested on: HOP-62
[17] = tested on: A498
[18] = tested on: CCRF-CEM
[19] = tested on: MOLT-4

Compound: O=C(O)CCC(=O)Nc1ccc2ccccc2c1
- GI50 [1]: > 100 µM (inactive)
- GI50 [2]: > 100 µM (inactive)
- GI50 [3]: > 100 µM (inactive)
- GI50 [4]: > 100 µM (inactive)
- GI50 [5]: > 100 µM (inactive)
- GI50 [6]: > 100 µM (inactive)
- GI50 [7]: > 100 µM (inactive)
- GI50 [8]: > 100 µM (inactive)
- GI50 [9]: > 100 µM (inactive)
- GI50 [10]: > 100 µM (inactive)
- GI50 [11]: > 100 µM (inactive)
- GI50 [12]: > 100 µM (inactive)
- GI50 [13]: > 100 µM (inactive)
- GI50 [14]: > 100 µM (inactive)
- GI50 [15]: > 100 µM (inactive)
- GI50 [16]: > 100 µM (inactive)
- GI50 [17]: > 100 µM (inactive)
- GI50 [18]: > 100 µM (inactive)
- GI50 [19]: > 100 µM (inactive)

Compound: COc1ccc(NC(=S)c2ccoc2C)cc1CC(=O)OC(C)C
- GI50 [1]: 24.9 µM (inactive)
- GI50 [2]: 48.3 µM (inactive)
- GI50 [3]: 30.8 µM (inactive)
- GI50 [5]: 18.2 µM (inactive)
- GI50 [6]: 45.5 µM (inactive)
- GI50 [8]: 17.7 µM (inactive)
- GI50 [9]: 33.3 µM (inactive)
- GI50 [10]: 29.2 µM (inactive)
- GI50 [11]: 30.1 µM (inactive)
- GI50 [12]: > 100 µM (inactive)
- GI50 [13]: 36 µM (inactive)
- GI50 [14]: 43.4 µM (inactive)
- GI50 [15]: 55.8 µM (inactive)
- GI50 [18]: 43.9 µM (inactive)
- GI50 [19]: 18.8 µM (inactive)

Compound: Cc1c2c(OCC3CCCCO3)nn(C)c(=O)c2c(C)n1-c1ccccc1 (configuration not stated)
- GI50 [1]: 19.1 µM (inactive)
- GI50 [2]: 17.7 µM (inactive)
- GI50 [3]: 16.5 µM (inactive)
- GI50 [4]: 16 µM (inactive)
- GI50 [5]: 24.1 µM (inactive)
- GI50 [6]: 15.3 µM (inactive)
- GI50 [7]: 18.7 µM (inactive)
- GI50 [8]: 17.4 µM (inactive)
- GI50 [9]: 20.6 µM (inactive)
- GI50 [10]: 21.5 µM (inactive)
- GI50 [11]: 15.8 µM (inactive)
- GI50 [12]: 17.4 µM (inactive)
- GI50 [13]: 18.4 µM (inactive)
- GI50 [14]: 16.1 µM (inactive)
- GI50 [15]: 17 µM (inactive)
- GI50 [16]: 19.2 µM (inactive)
- GI50 [17]: 14.9 µM (inactive)
- GI50 [19]: 29 µM (inactive)

Compound: COc1cc(OC)c(/C=C/c2cnc3ccccc3n2)c(OC)c1
- GI50 [1]: > 10 µM (inactive)
- GI50 [2]: > 10 µM (inactive)
- GI50 [3]: > 10 µM (inactive)
- GI50 [4]: > 10 µM (inactive)
- GI50 [5]: > 10 µM (inactive)
- GI50 [6]: > 10 µM (inactive)
- GI50 [7]: > 10 µM (inactive)
- GI50 [8]: > 10 µM (inactive)
- GI50 [9]: > 10 µM (inactive)
- GI50 [10]: > 10 µM (inactive)
- GI50 [11]: > 10 µM (inactive)
- GI50 [12]: > 10 µM (inactive)
- GI50 [13]: > 10 µM (inactive)
- GI50 [14]: > 10 µM (inactive)
- GI50 [15]: > 10 µM (inactive)
- GI50 [16]: > 10 µM (inactive)
- GI50 [17]: > 10 µM (inactive)
- GI50 [18]: > 10 µM (inactive)

Compound: O=P1(c2ccccc2)c2ccccc2CCc2ccccc21
- GI50 [1]: 70 µM (inactive)
- GI50 [2]: 72.8 µM (inactive)
- GI50 [4]: 44.4 µM (inactive)
- GI50 [5]: 49.3 µM (inactive)
- GI50 [6]: > 100 µM (inactive)
- GI50 [8]: > 100 µM (inactive)
- GI50 [9]: > 100 µM (inactive)
- GI50 [10]: 34.2 µM (inactive)
- GI50 [13]: > 100 µM (inactive)
- GI50 [14]: 95.9 µM (inactive)
- GI50 [15]: 53 µM (inactive)
- GI50 [16]: > 100 µM (inactive)
- GI50 [18]: 47.9 µM (inactive)
- GI50 [19]: 33.6 µM (inactive)

Compound: COc1ccccc1/C=C(/C)[N+](=O)[O-]
- GI50 [1]: 1.37 µM (inactive) and 1.21 µM (inactive)
- GI50 [2]: 1.02 µM (active) and 1.04 µM (active)
- GI50 [3]: 2.17 µM (inactive) and 2.44 µM (inactive)
- GI50 [5]: 1.99 µM (inactive) and 2.53 µM (inactive)
- GI50 [6]: 1.48 µM (inactive) and 3.94 µM (inactive)
- GI50 [7]: 2.51 µM (inactive) and 1.85 µM (inactive)
- GI50 [8]: 3.05 µM (inactive) and 1.83 µM (inactive)
- GI50 [9]: 2.06 µM (inactive) and 4.06 µM (inactive)
- GI50 [11]: 5.94 µM (inactive) and 3.86 µM (inactive)
- GI50 [13]: 2.17 µM (inactive) and 1.6 µM (inactive)
- GI50 [16]: 1.81 µM (inactive) and 3.37 µM (inactive)
- GI50 [17]: 7.13 µM (inactive) and 5.14 µM (inactive)
- GI50 [19]: 269 nM (active) and 255 nM (active)
